Reference: US9676732B2, “Ethynyl derivatives” (Hoffmann-La Roche Inc., priority 2013, dated 2017)

Assays:
EPM in mice = conditions: preclinical model of anxiety; cited from earlier work
EPM in rats = conditions: cited from earlier work
[1] = tested on: marble burying test in mice; conditions: preclinical model of anxiety; cited from earlier work
[2] = tested on: 6-OHDA rodent model of PD; conditions: cited from earlier work
human mGlu4 receptor = human mGlu4 receptor (Homo sapiens (Human), UniProt Q14833); experiment: Ca2+ mobilization in vitro assay on recombinant human mGlu4 expressed in HEK293 cells (mGlu4 PAM); assay type: cell-based; conditions: for EC50: HEK293 cells stably expressing human mGlu4, L-AP4 added at EC20, read-out: EC50 (nM) mGlu4PAM; for Eff. (%): maximal response in % of the maximal stimulatory effect obtained with saturating concentrations of L-AP4
Experimental: Determination of EC50 Values Using a Ca2+ Mobilization In Vitro Assay on Recombinant Human mGlu4 Expressed in HEK293 Cells:
A monoclonal HEK-293 cell line stably transfected with a cDNA encoding for the human mGlu4 receptor was generated; for the work with mGlu4 Positive Allosteric Modulators (PAMs), a cell line with low receptor expression levels and low constitutive receptor activity was selected to allow the differentiation of agonistic versus PAM activity. Cells were cultured according to standard protocols (Freshney, 2000) in Dulbecco's Modified Eagle Medium with high glucose supplemented with 1 mM glutamine, 10% (vol/vol) heat-inactivated bovine calf serum, Penicillin/Streptomycin, 50 μg/ml hygromycin and 15 μg/ml blasticidin (all cell culture reagents and antibiotics from Invitrogen, Basel, Switzerland).
About 24 hrs before an experiment, 5×10^4 cells/well were seeded in poly-D-lysine coated, black/clear-bottomed 96-well plates. The cells were loaded with 2.5 μM Fluo-4AM in loading buffer (1×HBSS, 20 mM HEPES) for 1 hr at 37° C. and washed five times with loading buffer. The cells were transferred into a Functional Drug Screening System 7000 (Hamamatsu, Paris, France), and 11 half logarithmic serial dilutions of test compound at 37° C. were added and the cells were incubated for 10-30 min. with on-line recording of fluorescence. Following this pre-incubation step, the agonist (2S)-2-amino-4-phosphonobutanoic acid (L-AP4) was added to the cells at a concentration corresponding to EC20 with on-line recording of fluorescence; in order to account for day-to-day variations in the responsiveness of cells, the EC20 of L-AP4 was determined immediately ahead of each experiment by recording of a full dose-response curve of L-AP4.
Responses were measured as peak increase in fluorescence minus basal (i.e. fluorescence without addition of L-AP4), normalized to the maximal stimulatory effect obtained with saturating concentrations of L-AP4. Graphs were plotted with the % maximal stimulatory using XLfit, a curve fitting program that iteratively plots the data using Levenburg Marquardt algorithm. The single site competition analysis equation used was y=A+((B−A)/(1+((x/C)D))), where y is the % maximal stimulatory effect, A is the minimum y, B is the maximum y, C is the EC50, x is the log 10 of the concentration of the competing compound and D is the slope of the curve (the Hill Coefficient). From these curves the EC50 (drug concentration at which 50% of the maximal receptor activation was achieved), the Hill coefficient as well as the maximal response in % of the maximal stimulatory effect obtained with saturating concentrations of L-AP4 were calculated (see FIG. 1).
A depression of the signal observed after addition of the EC20 concentration of L-AP4 was indicative of an inhibitory activity of the test compound. • FIG. 1: Illustration of the experimental outline for mGlu4 PAM Ca2+ mobilization screening assay and the determination of EC50 and % Emax values.

[3] = tested on: mice treated with 1-Methyl-4-Phenyl-1,2,3,6-Tetrahydropyridine (MPTP); conditions: cited from earlier work

Sequence of human mGlu4 receptor (Q14833 33-912): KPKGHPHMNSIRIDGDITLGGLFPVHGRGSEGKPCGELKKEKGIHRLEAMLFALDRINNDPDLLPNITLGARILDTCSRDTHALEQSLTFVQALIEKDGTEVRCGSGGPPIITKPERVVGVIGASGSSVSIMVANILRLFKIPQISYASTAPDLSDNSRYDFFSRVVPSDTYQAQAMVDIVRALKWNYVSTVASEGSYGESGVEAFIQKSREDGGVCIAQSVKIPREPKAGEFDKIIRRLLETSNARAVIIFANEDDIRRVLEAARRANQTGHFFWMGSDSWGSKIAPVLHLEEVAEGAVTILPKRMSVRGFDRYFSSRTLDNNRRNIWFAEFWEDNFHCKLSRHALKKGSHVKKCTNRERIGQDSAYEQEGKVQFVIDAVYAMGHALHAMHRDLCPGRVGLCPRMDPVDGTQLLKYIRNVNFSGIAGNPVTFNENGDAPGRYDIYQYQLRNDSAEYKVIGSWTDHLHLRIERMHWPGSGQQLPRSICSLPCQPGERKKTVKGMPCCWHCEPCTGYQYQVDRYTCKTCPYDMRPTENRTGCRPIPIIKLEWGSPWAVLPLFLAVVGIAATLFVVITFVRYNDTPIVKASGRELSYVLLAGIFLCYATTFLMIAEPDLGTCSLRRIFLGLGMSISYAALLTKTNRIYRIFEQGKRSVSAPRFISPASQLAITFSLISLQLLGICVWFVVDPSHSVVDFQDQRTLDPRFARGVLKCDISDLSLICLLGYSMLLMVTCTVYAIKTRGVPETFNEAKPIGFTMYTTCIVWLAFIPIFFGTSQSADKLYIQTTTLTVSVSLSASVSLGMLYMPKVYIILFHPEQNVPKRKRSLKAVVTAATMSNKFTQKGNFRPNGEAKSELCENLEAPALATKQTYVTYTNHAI

SMILES	EC50 (human mGlu4 receptor) [nM]	Eff. (%) (human mGlu4 receptor)	other results
Cc1ccnc(Nc2nc(-c3cn[nH]c3)c(C)s2)n1 [ADX88178]	–	–	activity in EPM (EPM in mice): active; profile in rat EPM test (EPM in rats; rat, after oral dosing): anxiolytic-like profile; activity in EPM (EPM in rats; rats, preclinical model of anxiety): active; activity in marble burying test [1]: active
N[C@@H](CCP(=O)(O)O)C(=O)O [L-AP4, (2S)-2-amino-4-phosphonobutanoic acid]	–	–	neuroprotection [2]: neuroprotective effects
CC(C)n1c(=O)n(-c2c(F)cc(C#Cc3ccccc3)cc2F)c(=O)c2nn(C)cc21 [Example 35, 6-[2,6-Difluoro-4-(2-phenylethynyl)phenyl]-4-isopropyl-2-methyl-pyrazolo[4,3-d]pyrimidine-5,7-dione]	30	89	–
Cn1c(=O)n(-c2c(F)cc(C#Cc3ccccc3)cc2F)c(=O)c2ccccc21 [Example 23, 3-[2,6-Difluoro-4-(2-phenylethynyl)phenyl]-1-methyl-quinazoline-2,4-dione]	203	168	–
Cn1c(=O)n(-c2c(F)cc(C#Cc3ccccc3)cc2F)c(=O)c2cccnc21 [Example 25, 3-(2,6-Difluoro-4-phenylethynyl-phenyl)-1-methyl-1H-pyrido[2,3-d]pyrimidine-2,4-dione]	89	109	–
Cc1csc2c(=O)n(-c3c(F)cc(C#Cc4ccccc4)cc3F)c(=O)n(C)c12 [Example 27, 3-[2,6-Difluoro-4-(2-phenylethynyl)phenyl]-1,7-dimethyl-thieno[3,2-d]pyrimidine-2,4-dione]	16	83	–
CC(C)n1c(=O)n(-c2ccc(C#Cc3ccccc3)cc2Cl)c(=O)c2ccccc21 [Example 13, 3-[2-Chloro-4-(2-phenylethynyl)phenyl]-1-isopropyl-quinazoline-2,4-dione]	57	115	–
Cc1ccnc2c(=O)n(-c3c(F)cc(C#Cc4ccccc4)cc3F)c(=O)n(C)c12 [Example 38, 3-[2,6-Difluoro-4-(2-phenylethynyl)phenyl]-1,8-dimethyl-pyrido[3,2-d]pyrimidine-2,4-dione]	108	108	–
O=c1[nH]c2ncsc2c(=O)n1-c1c(F)cc(C#Cc2ccccc2)cc1F [Example 31, 6-[2,6-Difluoro-4-(2-phenylethynyl)phenyl]-4H-thiazolo[4,5-d]pyrimidine-5,7-dione]	–	85	–
O=c1[nH]c2ncccc2c(=O)n1-c1ccc(C#Cc2ccccc2)cc1Cl [Example 6, 3-[2-Chloro-4-(2-phenylethynyl)phenyl]-1H-pyrido[2,3-d]pyrimidine-2,4-dione]	179	104	–
Cn1ncc2c(=O)n(-c3c(F)cc(C#Cc4ccccc4)cc3F)c(=O)n(C)c21 [Example 63, 5-[2,6-Difluoro-4-(2-phenylethynyl)phenyl]-1,7-dimethyl-pyrazolo[3,4-d]pyrimidine-4,6-dione]	26	146	–
CC(C)n1c(=O)n(-c2ncc(C#Cc3ccccc3)cc2Cl)c(=O)c2nn(C)cc21 [Example 60, 6-[3-Chloro-5-(2-phenylethynyl)-2-pyridyl]-4-isopropyl-2-methyl-pyrazolo[4,3-d]pyrimidine-5,7-dione]	189	150	–
CC(C)n1c(=O)n(-c2c(F)cc(C#Cc3ccccc3)cc2F)c(=O)c2cccnc21 [Example 37, 3-[2,6-Difluoro-4-(2-phenylethynyl)phenyl]-1-isopropyl-pyrido[2,3-d]pyrimidine-2,4-dione]	88	73	–
CC(C)n1c(=O)n(-c2ncc(C#Cc3ccccc3)cc2F)c(=O)c2nn(C)cc21 [Example 56, 6-[3-Fluoro-5-(2-phenylethynyl)-2-pyridyl]-4-isopropyl-2-methyl-pyrazolo[4,3-d]pyrimidine-5,7-dione]	121	120	–
Cn1c(=O)n(-c2ccc(C#Cc3ccccc3)cc2Cl)c(=O)c2ccc(F)c(F)c21 [Example 19, 3-[2-Chloro-4-(2-phenylethynyl)phenyl]-7,8-difluoro-1-methyl-quinazoline-2,4-dione]	134	73	–
O=C(Nc1ccccc1)C12CC1/C(=N\O)c1ccccc1O2 (single isomer, unassigned; (-)) [(−)-PHCCC]	–	–	nigrostriatal degeneration [3]: reduced nigrostriatal degeneration
O=c1c2ccccc2n(C2COC2)c(=O)n1-c1c(F)cc(C#Cc2cccnc2)cc1Cl [Example 71, 3-[2-Chloro-6-fluoro-4-[2-(3-pyridyl)ethynyl]phenyl]-1-(oxetan-3-yl)quinazoline-2,4-dione]	86	103	–
Cc1cccc2c(=O)n(-c3c(F)cc(C#Cc4ccccc4)cc3F)c(=O)n(C)c12 [Example 24, 3-[2,6-Difluoro-4-(2-phenylethynyl)phenyl]-1,8-dimethyl-quinazoline-2,4-dione]	26	101	–
Cn1c(=O)n(-c2ccc(C#Cc3ccccc3)cc2Cl)c(=O)c2cccnc21 [Example 7, 3-[2-Chloro-4-(2-phenylethynyl)phenyl]-1-methyl-pyrido[2,3-d]pyrimidine-2,4-dione]	222	101	–
Cn1c(=O)n(-c2ccc(C#Cc3ccccc3)cc2Cl)c(=O)c2ncccc21 [Example 9, 3-[2-Chloro-4-(2-phenylethynyl)phenyl]-1-methyl-pyrido[3,2-d]pyrimidine-2,4-dione]	308	167	–
Cn1c(=O)n(-c2ccc(C#Cc3ccccc3)cc2Cl)c(=O)c2ncsc21 [Example 67, 6-[2-Chloro-4-(2-phenylethynyl)phenyl]-4-methyl-thiazolo[5,4-d]pyrimidine-5,7-dione]	246	188	–
Cn1cnc2c1c(=O)n(-c1ccc(C#Cc3ccccc3)cc1Cl)c(=O)n2C [Example 11, 1-[2-Chloro-4-(2-phenylethynyl)phenyl]-3,7-dimethyl-purine-2,6-dione]	175	122	–
